Holding throughout (assay type): in vivo, human
Experiment [1] relates to patient with T2DM. Description: Gliclazide/inulin combination therapy, extended case report: FBG, HA1C and lipid profiles. The conditions noted are these: Gliclazide 30 mg once daily for nearly a decade, before inulin. An excerpt:
This patient began the combination therapy with a commercially available inulin (Cl) as previously described in PCT/AU2011/000622, the contents of which are incorporated herein in their entirety. Various blood parameter measurements were as described PCT/AU2011/000622.

Experiment [2] relates to patient with T2DM. In words: Glimepiride/inulin combination therapy, T2DM case report, FBG. The method, then: Doctor recommended diet-only treatment. […] The dose was increased in a 1 mg increment and currently this patient is taking 4 mg once daily Glimepiride. [table] Blood sugar level was determined using Accu-Chek Performa (Roche, Mannheim, Germany) device (CAT/TYP 04680464003 mmol/L and 55405079196) according to manufacturer instructions. During baseline measurements of FBG levels, patient was on Glimepiride at the dose of 4 mg once daily.

Experiment [3] has as its system patient with T2DM. In words: Glipizide/inulin combination therapy, T2DM case report, FBG. The method, then:
person, with body mass index of 29 classified as overweight, with the family history of T2DM.
[…] the patient was diagnosed with T2DM. Doctor recommended diet-only treatment. […] due to increased FBG levels the patient was treated with Glipizide (5 mg/day, 5 mg once daily). The dose was increased in a 5 mg increment and currently this patient is taking 15 mg/day, 5 mg three times a day, Glipizide.
Blood sugar level was determined using Accu-Chek Performs (Roche, Mannheim, Germany) device (CAT/TYP 04680464002 mmol/L and 55403057614) according to manufacturer instructions.
During baseline measurements of FBG level, patient was on Glipizide at the dose of 15 mg per day.
inulin introduced at 3 g/day (1 g with each meal, 3 times a day) for one week. Inulin amount was increased to 6 g/day (2 g with each meal, 3 times a day) at week 2, 9 g/day (3 g with each meal, 3 times a day) at week 3 and 12 g/day (4 g with each meal, 3 times a day) at week 4.
Patient continued taking inulin with meal at 4 g/meal (12 gr/day total).

`Cc1ccc(S(=O)(=O)NC(=O)NN2CC3CCCC3C2)cc1` (centres unmarked) [Gliclazide]: the blood glucose levels result in experiment [1] is “above 9 mmol/L”.

As to `CCC1=C(C)CN(C(=O)NCCc2ccc(S(=O)(=O)NC(=O)N[C@H]3CC[C@H](C)CC3)cc2)C1=O` [Glimepiride], in experiment [2] (Glimepiride 4 mg once daily, no inulin, June 2011), the FBG at baseline is on record as roughly 8 mmol/L. For the same molecule, the “FBG level prior to inulin combination therapy” value in experiment [2] (Glimepiride monotherapy, a couple of years prior to inulin) is on record as “above 7 mmol/L”.

`Cc1cnc(C(=O)NCCc2ccc(S(=O)(=O)NC(=O)NC3CCCCC3)cc2)cn1` [Glipizide]: the FBG at baseline in experiment [3] (Glipizide 15 mg per day, no inulin, July 2011) is reported as roughly 6.5 mmol/L. Also, the “FBG level prior to inulin combination therapy” value in experiment [3] (Glipizide monotherapy, a couple of years prior to inulin) was “around 7 mmol/L”.

The values above are taken from US9737559B2, “Synergistic anti-diabetic compositions” (Ozstar Therapeutics Pty Ltd, priority 2011, dated 2017).
